Values quoted from earlier work in patent publication US11766390B2, “Method for dyeing keratinous material, comprising the use of an organosilicon compound, a colored effect pigment and a film-forming polymer II” (Henkel AG & Co. KGaA, priority 2019, dated 2023).

Conditions: for solubility in water: 25° C.

solubility in water (in words) (at 25° C.)	Compound	solubility in water
	CCN(Cc1cccc(S(=O)(=O)[O-])c1)c1ccc(C(=C2C=CC(=[N+](CC)Cc3cccc(S(=O)(=O)[O-])c3)C=C2)c2ccccc2S(=O)(=O)[O-])cc1.[Na+].[Na+] [Acid Blue 9]	more than 20 % by weight
	O=S(=O)([O-])c1ccc(N=Nc2c(O)ccc3ccccc23)cc1.[Na+] [Acid Orange 7, sodium salt of 4-[(2-hydroxy-1-naphthyl)azo]benzene sulphonate]	more than 7 g/L
	Nc1cc(S(=O)(=O)[O-])cc2cc(S(=O)(=O)[O-])c(N=Nc3ccccc3)c(O)c12.[Na+].[Na+] [Acid Red 33, disodium salt of 5-amino-4-hydroxy-3-(phenylazo)-naphthalene-2,7-disulphonate]	2.5 g/L
	O=C([O-])c1c(Cl)c(Cl)c(Cl)c(Cl)c1-c1c2c(Br)cc(=O)c(Br)c-2oc2c(Br)c(O)cc(Br)c12.O=C([O-])c1c(Cl)c(Cl)c(Cl)c(Cl)c1-c1c2c(Br)cc(=O)c(Br)c-2oc2c(Br)c(O)cc(Br)c12.[Na+].[Na+] [Acid Red 92, disodium salt of 3,4,5,6-tetrachloro-2-(1,4,5,8-tetrabromo-6-hydroxy-3-oxoxanthen-9-yl)benzoic acid]	greater than 10 g/L
highly soluble	O=C([O-])C1=NN(c2ccc(S(=O)(=O)[O-])cc2)C(=O)C1N=Nc1ccc(S(=O)(=O)[O-])cc1.[Na+].[Na+].[Na+] (centres unmarked) [Acid Yellow 23, trisodium salt of 4,5-dihydro-5-oxo-1-(4-sulfophenyl)-4-((4-sulfophenyl)azo)-1H-pyrazole-3-carboxylic acid]	
